# Experiments:
# [1] = test system: Mycobacteroides abscessus; assay: Antibacterial activity against Mycobacterium abscessus after 7 days by alamar blue assay; type: functional; settings: 168 h
# Klebsiella pneumoniae = assay: Antibacterial activity against Klebsiella pneumoniae ATCC BAA-1705 after 24 hrs; type: functional; settings: ATCC BAA-1705, 24 h
# Pseudomonas aeruginosa = assay: Antibacterial activity against Pseudomonas aeruginosa ATCC 27853 after 24 hrs; type: functional; settings: ATCC 27853, 24 h
# [2] = test system: Mycolicibacterium fortuitum; assay: Antibacterial activity against Mycobacterium fortuitum after 7 days by alamar blue assay; type: functional; settings: 168 h
# Escherichia coli = assay: Antibacterial activity against Escherichia coli ATCC 25922 after 24 hrs; type: functional; settings: ATCC 25922, 24 h
# Mycobacteroides chelonae = assay: Antibacterial activity against Mycobacterium chelonae after 7 days by alamar blue assay; type: functional; settings: 168 h
# Acinetobacter baumannii = assay: Antibacterial activity against Acinetobacter baumannii ATCC BAA-1605 after 24 hrs; type: functional; settings: ATCC BAA-1605, 24 h
# Staphylococcus aureus = assay: Antibacterial activity against Staphylococcus aureus ATCC 29213 after 24 hrs; type: functional; settings: ATCC 29213, 24 h
# [3] = test system: Mycobacterium tuberculosis; assay: Antitubercular activity against Mycobacterium tuberculosis H37Rv after 7 days by alamar blue assay; type: functional; settings: 168 h
# HeLa = assay: Cytotoxicity against human HeLa cells after 24 hrs by MTT assay; type: functional, cell-based
# HepG2 = assay: Cytotoxicity against human HepG2 cells after 24 hrs by MTT assay; type: functional, cell-based; settings: HepG2, 24 h
# DU-145 = assay: Cytotoxicity against human DU145 cells after 24 hrs by MTT assay; type: functional, cell-based; settings: DU-145, 24 h
# A549 = assay: Cytotoxicity against human A549 cells after 24 hrs by MTT assay; type: functional, cell-based; settings: A549, 24 h
# [4] = Cytotoxicity against […] B16 cells after 24 hrs by MTT assay; type: functional, cell-based; settings: B16, 24 h
# MCF7 = assay: Cytotoxicity against human MCF7 cells after 24 hrs by MTT assay; type: functional, cell-based; settings: MCF7, 24 h
# [5] = Cytotoxicity against HEK cells after 24 hrs by MTT assay; type: cell-based; settings: Homo sapiens, HEK293, 24 h
# CHO-K1 = assay: Cytotoxicity against CHOK1 cells after 24 hrs by MTT assay; type: cell-based; settings: Cricetulus griseus, CHO-K1, 24 h
# [6] = Selectivity index, ratio of IC50 for CHOK1 cells to MIC for Mycobacterium tuberculosis H37Rv; type: toxicity; settings: hamster, read-out: Selectivity Index
compound,measurement,setting,value
CCc1ccccc1N(C(=O)c1sc(C)nc1C)C(C(=O)NC1CCCCC1)c1ccccc1 (stereo not given),MIC,[1],> 50 µM
same,MIC,Klebsiella pneumoniae,> 50 µM
same,MIC,Pseudomonas aeruginosa,> 50 µM
same,MIC,[2],> 50 µM
same,MIC,Escherichia coli,> 50 µM
same,MIC,Mycobacteroides chelonae,> 50 µM
same,MIC,Acinetobacter baumannii,> 50 µM
same,MIC,Staphylococcus aureus,> 50 µM
same,MIC,[3],25 µM
Cc1cccc(N(C(=O)c2cnc3ccccc3c2)C(C(=O)NC2CCCCC2)c2ccccc2)c1C (stereo not given),MIC,[3],> 100 µM
Cc1nc(C)c(C(=O)N(c2cccc(C)c2C)C(C(=O)NC(C)(C)C)c2ccccc2)s1 (stereo not given),MIC,[3],> 100 µM
Cc1cccc(N(C(=O)c2ccc(Br)o2)C(C(=O)NC2CCCCC2)c2ccccc2)c1C (stereo not given),MIC,[3],> 100 µM
Cc1nc(C)c(C(=O)N(c2ccc(C)c(C)c2)C(C(=O)NC2CCCCC2)c2ccccc2)s1 (stereo not given),MIC,[3],> 100 µM
Cc1ccc(N(C(=O)c2sc(C)nc2C)C(C(=O)NC(C)(C)C)c2ccccc2)cc1 (stereo not given),MIC,[3],> 100 µM
COc1ccc(C(C(=O)NC2CCCCC2)N(C(=O)c2sc(C)nc2C)c2ccc(C)cc2)cc1 (stereo not given),MIC,[3],> 100 µM
Cc1ccc(N(C(=O)c2sc(C)nc2C)C(C(=O)NC(C)(C)C)c2ccccc2)c(C)c1 (stereo not given),MIC,[3],> 100 µM
Cc1nc(C)c(C(=O)N(c2c(C)cccc2C)C(C(=O)NC2CCCCC2)c2ccccc2)s1 (stereo not given),MIC,[1],> 50 µM
same,MIC,Klebsiella pneumoniae,> 50 µM
same,MIC,Pseudomonas aeruginosa,> 50 µM
same,MIC,[2],> 50 µM
same,MIC,Escherichia coli,> 50 µM
same,MIC,Mycobacteroides chelonae,> 50 µM
same,MIC,Acinetobacter baumannii,> 50 µM
same,MIC,Staphylococcus aureus,> 50 µM
same,MIC,[3],25 µM
Cc1cc(C)cc(N(C(=O)c2sc(C)nc2C)C(C(=O)NC2CCCCC2)c2ccccc2)c1 (stereo not given),MIC,[3],> 100 µM
Cc1nc(C)c(C(=O)N(c2ccccc2)C(C(=O)NC2CCCCC2)c2ccccc2)s1 (stereo not given),MIC,[3],> 100 µM
COc1cccc2c1C(=O)c1c(O)c3c(c(O)c1C2=O)C[C@@](O)(C(=O)CO)C[C@@H]3O[C@H]1C[C@H](N)[C@H](O)[C@H](C)O1 [DOXORUBICIN],IC50,HeLa,0.8 µM
same,IC50,HepG2,0.72 µM
same,IC50,DU-145,0.363 µM
same,IC50,A549,0.55 µM
same,IC50,[4],0.7 µM
same,IC50,MCF7,2 µM
same,IC50,[5],0.01 µM
Cc1ccc(N(C(=O)c2sc(C)nc2C)C(C(=O)NC2CCCCC2)c2ccc(C(F)(F)F)cc2)cc1 (stereo not given),MIC,[3],> 100 µM
Cc1ccc(N(C(=O)c2sc(C)nc2C)C(C(=O)NC2CCCCC2)c2cccc(C(F)(F)F)c2)cc1 (stereo not given),IC50,HeLa,16.4 µM
same,IC50,HepG2,8.14 µM
same,IC50,DU-145,11.8 µM
same,IC50,A549,13.9 µM
same,IC50,CHO-K1,42.7 µM
same,IC50,[4],11.6 µM
same,IC50,MCF7,5.7 µM
same,selectivity ratio,[6],6.8
same,MIC,[3],6.25 µM
same,IC50,[5],59.8 µM
Cc1nc(C)c(C(=O)N(c2ccccc2)C(C(=O)NC2CCCCC2)c2cccc(C(F)(F)F)c2)s1 (stereo not given),MIC,[3],> 100 µM
Cc1nc(C)c(C(=O)N(c2ccccc2O)C(C(=O)NC2CCCCC2)c2ccccc2)s1 (stereo not given),MIC,[1],> 50 µM
same,MIC,Klebsiella pneumoniae,> 50 µM
same,MIC,Pseudomonas aeruginosa,> 50 µM
same,MIC,[2],> 50 µM
same,MIC,Escherichia coli,> 50 µM
same,MIC,Mycobacteroides chelonae,> 50 µM
same,MIC,Acinetobacter baumannii,> 50 µM
same,MIC,Staphylococcus aureus,> 50 µM
same,MIC,[3],25 µM
Cc1cccc(C)c1N(C(=O)c1ccc[nH]1)C(C(=O)NC1CCCCC1)c1ccccc1 (stereo not given),MIC,[1],> 50 µM
same,MIC,Klebsiella pneumoniae,> 50 µM
same,MIC,Pseudomonas aeruginosa,> 50 µM
same,MIC,[2],> 50 µM
same,MIC,Escherichia coli,> 50 µM
same,MIC,Mycobacteroides chelonae,> 50 µM
same,MIC,Acinetobacter baumannii,> 50 µM
same,MIC,Staphylococcus aureus,> 50 µM
same,MIC,[3],25 µM
Cc1nc(C)c(C(=O)N(c2ccccc2)C(C(=O)NC2CCCCC2)c2ccc(C(F)(F)F)cc2)s1 (stereo not given),MIC,[3],> 100 µM
Cc1cccc(N(C(=O)c2ccco2)C(C(=O)NC2CCCCC2)c2ccccc2)c1C (stereo not given),MIC,[3],> 100 µM
Cc1cccc(N(C(=O)c2c(C)noc2C)C(C(=O)NC2CCCCC2)c2ccncc2)c1C (stereo not given),MIC,[1],> 50 µM
same,MIC,Klebsiella pneumoniae,> 50 µM
same,MIC,Pseudomonas aeruginosa,> 50 µM
same,MIC,[2],> 50 µM
same,MIC,Escherichia coli,> 50 µM
same,MIC,Mycobacteroides chelonae,> 50 µM
same,MIC,Acinetobacter baumannii,> 50 µM
same,MIC,Staphylococcus aureus,> 50 µM
same,MIC,[3],25 µM

# From ChEMBL document CHEMBL4422644, “Synthesis and evaluation of α-aminoacyl amides as antitubercular agents effective on drug resistant tuberculosis” (Eur J Med Chem, 2019)
